“Also recorded” adds a separate entry of the source.
Tests used:
H460 cells = experiment: Polyploidy by DNA content analyses (Cellomics ArrayScan); format: cell-based, human; conditions: 7 nM, 42 h exposure
Solution state stability = format: physicochemical
Description: In solution state, the compound of formula (I) according to the invention show no or only minor sensitivity towards hydrolysis at pH 2.2-10 (solution state stability, e.g. 0.1M HCl, 8 h @ 37° C.: <1% decomposition; Mc Ilvaine buffer 7.4, 3d @ 60° C.: <1,5% decomposition).

[1] = system: tumors derived from melanoma cell line G361^V600V/E; experiment: Human melanoma xenograft G361 in nude mice; format: in vivo; conditions: oral qd, Compound A 10 mg/kg, vemurafenib 120 mg/kg; for TGI@d23 [%]: day 23; for CR@d30 [x/7] / PR@d30 [x/7]: day 30
Description: Athymic female BomTac:NMRI-Foxn1^nu mice about six weeks of age are allowed to adjust to ambient conditions for at least five days before they are used for experiments. The animals are housed under standardized conditions in groups of 7-10 in Macrolon® type III cages. Standardized diet (PROVIMI KLIBA) and autoclaved tap water are provided ad libitum. To establish subcutaneous tumors, cells are harvested by trypsinization, centrifuged, washed and resuspended in ice-cold PBS+5% FCS. 100 μL of cell suspension containing, depending on cell type, about 10^6 to 10^7 cells are injected subcutaneously into the right flank of a nude mouse (one site per mouse). Mice are randomly distributed between the treatment and the vehicle control group (12 days after cell injection) when tumors are well established and have reached volumes of 40-120 mm^3
The tumor diameter is measured three times a week (Monday, Wednesday and Friday) with a caliper. The volume of each tumor (in mm^3) is calculated according to the formula “tumor volume=length×diameter^2×π/6”. To monitor side effects of treatment, mice are inspected daily for abnormalities and body weight is determined three times a week (e.g. Monday, Wednesday and Friday). Animals are sacrificed at the end of the study about ten weeks after start of treatment. Animals with necrotic tumors or tumor sizes exceeding 1500 mm^3 are sacrificed early during the studies for ethical reasons.
For a quick overview of possible treatment effects the median of the tumor volume of each treatment group T is related to the median of the tumor volume of control C. Tumor growth inhibition (TGI) from day 1 until day d is calculated as: […]
wherein • C1 and T1 represent the median tumor volumes in the control and treatment groups at start of the experiment at day 1 and • Cd and Td represent the median tumor volumes in the control and treatment groups at end of the experiment at day d.
Mice with tumors derived from melanoma cell line G361^V600V/E are treated orally with the B-Raf inhibitor vemurafenib qd at doses of 120 mg/kg or with 3-{3-[1-(4-Dimethylaminomethyl-phenylamino)-1-phenyl-meth-(Z)-ylidene]-2-oxo-2,3-dihydro-1H-indol-6-yl}-propynoic acid ethylamide (Compound A) qd at doses of 10 mg/kg or with the vehicle only. In addition, mice are treated orally with B-Raf inhibitor vemurafenib qd at doses of 120 mg/kg in combination with Compound A qd at doses of 10 mg/kg.

[2] = system: phospho-histone H3 in NCI-H460 cells; experiment: Analysis of histone H3 phosphorylation in NCI-H460 cells (Cellomics); format: cell-based; conditions: Homo sapiens, synchronized H460 NSCLC cells, 1 h treatment, molecular phosphorylation assay, read-out: EC50 for reduction of phospho-histone H3
Description: This CDK1 inhibitor arrests cells in G2. […] The final DMSO concentration was 0.1%.

[3] = system: phospho-ERK in SK-MEL-28 cells; experiment: Fast Active Cell-Based ELISA (FACE) SK-MEL-28 p-ERK; conditions: Homo sapiens, SK-MEL 28 melanoma cells, read-out: EC50 for reduction of phospho-ERK
Description: Fast Active Cell-Based ELISA (FACE) SK-MEL-28 p-ERK:
The supernatant is removed.

[4] = Solid state chemical stability; format: physicochemical
Description: The crystalline free base form of 3-{3-[1-(4-Dimethylaminomethyl-phenylamino)-1-phenyl-meth-(Z)-ylidene]-2-oxo-2,3-dihydro-1H-indol-6-yl}-propynoic acid ethylamide according to this invention has further added properties, such as e.g. no sensitivity towards heat, humidity and photolysis in solid state (solid state chemical stability, e.g. 3d @ 70° C. and >90% r.h.: <1% decomposition; 3d @ 105° C.: <1.5% decomposition; 24 h under UV-radiation @ 250 W/m^2: <1.5% decomposition).

[5] = Water sorption isotherms (DVS); format: physicochemical; conditions: sorption isotherms at 25° C.
Description: To study the hygroscopical behaviour of this material, sorption isotherms are registered, e.g. on a DVS-1 water sorption monitor from Surface Measurement Systems. Adsorption and desorption isotherms are performed at 25° C. with 10% r.h. step intervals ranging from 10% r.h. up to 90% r.h.

In the case of `CCNC(=O)C#Cc1ccc2c(c1)NC(=O)/C2=C(\Nc1ccc(CN(C)C)cc1)c1ccccc1` [Compound A, 3-{3-[1-(4-Dimethylaminomethyl-phenylamino)-1-phenyl-meth-(Z)-ylidene]-2-oxo-2,3-dihydro-1H-indol-6-yl}-propynoic acid ethylamide], the polyploid cells (H460 cells) is reported as 81%, the “decomposition, solution state” value (Solution state stability; 0.1M HCl, 8 h @ 37° C.) is reported as under 1% and the “decomposition, solution state” value (Solution state stability; Mc Ilvaine buffer 7.4, 3d @ 60° C.) is reported as < 1,5%. The “mortality [x/7]” value [1] was 1 x/7, the “TGI@d23 [%]” value [1] was 45% and the “CR@d30 [x/7]” value [1] was 0 x/7. For the same compound, the “PR@d30 [x/7]” value [1] was 0 x/7, the EC50 [2] was 0.044 µM and the EC50 [3] was 0.059 µM.
In the case of `CCCS(=O)(=O)Nc1ccc(F)c(C(=O)c2c[nH]c3ncc(-c4ccc(Cl)cc4)cc23)c1F` [vemurafenib, reference compound], the “mortality [x/7]” value [1] is reported as 0 x/7, the “TGI@d23 [%]” value [1] is reported as 44% and the “CR@d30 [x/7]” value [1] is reported as 0 x/7. For the same compound, the “PR@d30 [x/7]” value [1] was 0 x/7.
For `CCNC(=O)C#Cc1ccc2c(c1)NC(=O)/C2=C(\Nc1ccc(CN(C)C)cc1)c1ccccc1` [3-{3-[1-(4-Dimethylaminomethyl-phenylamino)-1-phenyl-meth-(Z)-ylidene]-2-oxo-2,3-dihydro-1H-indol-6-yl}-propynoic acid ethylamide], the “decomposition, solid state” value ([4]; 24 h under UV-radiation @ 250 W/m^2) was under 1.5%, the “decomposition, solid state” value ([4]; 3d @ 70° C. and >90% r.h.) was under 1% and the “decomposition, solid state” value ([4]; 3d @ 105° C.) was under 1.5%. The hygroscopical behaviour [5] was “not hygroscopic; also recorded: non-hygroscopic”.
